The values below are quoted from earlier work in patent US20140227392A1, “BEER AND RELEVANT PRODUCTION METHOD” (FARCHIONI OLII - S.P.A., priority 2011, published 2014).

Each structure is given as a SMILES string.

The conditions of the series: compared with its precursor daidzein.

On to `Oc1ccc([C@H]2COc3cc(O)ccc3C2)cc1` [S-(−) equol], for which the antioxidant activity entry is on record as “significantly greater in antioxidant activity than its precursor”.
